Some test systems named below: SF-268 CNS; SR leukemia; OVCAR-3 ovarian; SN12C renal; IGROV1 ovarian; OVCAR-8 ovarian; A498 renal; SW-620 colon; K-562 leukemia; T-47D breast.
What all share (assay): NCI anticancer screen, dose series, 48 h

The record followed here is PubChem BioAssay (NCI).

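Five compound concentrations were applied to cells in 96-well plates for 48 hours; endpoints were derived by simple linear interpolation of the resulting dose-response curve. GI50 marks 50% less growth. TGI denotes the concentration required for complete inhibition of growth.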 Where only a bound is given, the exact number is not on record here.

For the compound `COc1ccc(C(=O)c2cc(C)c(OC)c(C)c2)c(OC)c1NC(C)=O`, the GI50 in the experiment with SF-268 CNS was 1.82 µM; in the experiment with SR leukemia it was 0.307 µM; in the experiment with OVCAR-3 ovarian, 0.483 µM; in the experiment with SN12C renal, 0.448 µM; in the experiment with IGROV1 ovarian, 0.529 µM; in the experiment with OVCAR-8 ovarian it was 0.419 µM. Moreover, the values for the GI50 in the experiment with A498 renal, in the experiment on SW-620 colon and in the experiment on K-562 leukemia were 0.0228 µM, 0.19 µM and 0.937 µM, respectively. Moreover, the TGI was over 100 µM in the experiment on SF-268 CNS; over 100 µM in the experiment with SR leukemia; over 100 µM in the experiment on SN12C renal; over 100 µM in the experiment with IGROV1 ovarian; over 100 µM in the experiment with OVCAR-8 ovarian; 0.0795 µM with A498 renal. Further, the TGI in the experiment with SW-620 colon and in the experiment on K-562 leukemia was over 100 µM throughout.
Regarding `COc1ccc(-c2ccc(/C=N/n3c(COc4ccccc4Cl)nn(CN4CCOCC4)c3=S)o2)c([N+](=O)[O-])c1`, the GI50 was 24 µM in the experiment with SF-268 CNS; 16.7 µM in the experiment on OVCAR-3 ovarian; 32 µM with SN12C renal; 59.5 µM with IGROV1 ovarian; 53.9 µM with T-47D breast; 39.4 µM in the experiment with OVCAR-8 ovarian. In addition, the GI50 is 27.4 µM in the experiment on SW-620 colon and 18.2 µM with K-562 leukemia. Besides, the TGI is 63.4 µM in the experiment on SF-268 CNS; 52.4 µM in the experiment on OVCAR-3 ovarian; 96.7 µM in the experiment with SN12C renal; over 100 µM in the experiment with IGROV1 ovarian; over 100 µM in the experiment on T-47D breast; over 100 µM in the experiment on OVCAR-8 ovarian. Moreover, the results for the TGI in the experiment on SW-620 colon and with K-562 leukemia were 87.1 µM and 41 µM, respectively.
As to `Cc1cc(N(CCOS(C)(=O)=O)CCOS(C)(=O)=O)ccc1C(=O)O`, the GI50 in the experiment with SF-268 CNS is over 100 µM; in the experiment on SR leukemia it was 40.7 µM; in the experiment with OVCAR-3 ovarian, over 100 µM; with SN12C renal, over 100 µM; with T-47D breast it was over 100 µM; with OVCAR-8 ovarian, over 100 µM. Also, the GI50 in the experiment on SW-620 colon and in the experiment with K-562 leukemia was over 100 µM each time. In addition, the TGI in the experiment on SF-268 CNS, with SR leukemia, in the experiment on OVCAR-3 ovarian, in the experiment on SN12C renal, with T-47D breast and with OVCAR-8 ovarian was over 100 µM in each case. The TGI with SW-620 colon and with K-562 leukemia was over 100 µM in each case.
For the compound `O=C(CN(/C=C/C(=O)C(F)(F)F)c1ccc(Cl)cc1)c1ccc(Cl)c(Cl)c1`, the GI50 is 4.13 µM in the experiment with SF-268 CNS; 2.26 µM with SR leukemia; 3.23 µM in the experiment with OVCAR-3 ovarian; 2.38 µM with SN12C renal; 6.8 µM with IGROV1 ovarian; 10.3 µM in the experiment on T-47D breast. Also, the GI50 is 10.7 µM in the experiment with OVCAR-8 ovarian, 3.65 µM in the experiment on A498 renal and 13.2 µM in the experiment with SW-620 colon. For the same compound, the TGI with SF-268 CNS was determined as 16.4 µM; with SR leukemia it was 6.96 µM; in the experiment with OVCAR-3 ovarian it was 11.3 µM; with SN12C renal, 5.43 µM; in the experiment with IGROV1 ovarian it was 22.1 µM; in the experiment with T-47D breast, 29.9 µM. Moreover, the TGI in the experiment on OVCAR-8 ovarian stood at 28.8 µM; in the experiment on A498 renal, 16.7 µM; in the experiment with SW-620 colon, 30.5 µM.
In the case of `Cc1ccc(-c2nc(/C=N/Nc3cc(C)nc4ccc(Cl)cc34)c(C)o2)cc1`, the GI50 is 0.339 µM with SR leukemia; 1.94 µM in the experiment on OVCAR-3 ovarian; 1.79 µM with SN12C renal; 1.81 µM in the experiment on IGROV1 ovarian; 1.8 µM in the experiment with T-47D breast; 1.65 µM with OVCAR-8 ovarian. In addition, the GI50 in the experiment with A498 renal is 1.61 µM; with SW-620 colon it was 0.485 µM. Further, the TGI stood at 1.39 µM in the experiment on SR leukemia; 3.56 µM in the experiment with OVCAR-3 ovarian; 3.49 µM with SN12C renal; 3.48 µM in the experiment on IGROV1 ovarian; 3.72 µM in the experiment on T-47D breast; 4.13 µM in the experiment on OVCAR-8 ovarian. Further, the TGI is 3.77 µM with A498 renal and 2.07 µM with SW-620 colon.
`C#C[C@@]1(O)[C@@H](CO)O[C@@H](n2cc(I)c3c(N)ncnc32)[C@@H]1O`: the GI50 is 1.1 µM with SF-268 CNS; 0.262 µM in the experiment on SR leukemia; 0.0976 µM in the experiment on SN12C renal; 0.0456 µM in the experiment on OVCAR-8 ovarian; 0.309 µM in the experiment on A498 renal; 0.0581 µM in the experiment on SW-620 colon. For the same compound, the GI50 in the experiment on K-562 leukemia was 0.064 µM. The TGI in the experiment with SF-268 CNS is 49.9 µM; with SR leukemia it was over 28.5 µM; with SN12C renal, over 100 µM; with T-47D breast, 0.127 µM; in the experiment with A498 renal it was 1.43 µM; with SW-620 colon it was over 100 µM. Besides, the TGI with K-562 leukemia is over 100 µM.
In the case of `C/C(CN1C(=O)c2ccccc2C1=O)=N\NS(=O)(=O)c1cccc(C(=O)O)c1`, the TGI in the experiment on SF-268 CNS, in the experiment with SR leukemia, in the experiment on OVCAR-3 ovarian, in the experiment with SN12C renal, in the experiment on IGROV1 ovarian and with OVCAR-8 ovarian was over 100 µM each time. The TGI in the experiment on A498 renal, in the experiment on SW-620 colon and in the experiment on K-562 leukemia was over 100 µM in each case.
As to `NC1c2ccccc2Nc2ccccc21`, the TGI with SF-268 CNS is 13.9 µM; with SR leukemia it was 7.24 µM; in the experiment on OVCAR-3 ovarian, 28.9 µM; in the experiment with SN12C renal, 19 µM; with IGROV1 ovarian it was 21.7 µM; in the experiment with OVCAR-8 ovarian, 17.1 µM. Also, the TGI in the experiment with A498 renal stood at 22.8 µM; with SW-620 colon, 14.4 µM; in the experiment on K-562 leukemia, 14.5 µM.
Consider `CC/C(Cc1ccccc1)=C(\c1ccc(OCCN2CCCC2)cc1)c1ccc(OC(=O)NCc2ccccc2)cc1`, for which the GI50 is 1.81 µM in the experiment on SF-268 CNS; 1.57 µM in the experiment with SR leukemia; 1.86 µM with OVCAR-3 ovarian; 1.81 µM in the experiment with SN12C renal; 1.93 µM in the experiment on IGROV1 ovarian; 1.41 µM in the experiment with T-47D breast. Besides, the GI50 was 1.87 µM in the experiment with OVCAR-8 ovarian, 1.93 µM with SW-620 colon and 1.7 µM with K-562 leukemia. In addition, the TGI was 3.77 µM in the experiment on SF-268 CNS; 4.07 µM in the experiment on SR leukemia; 3.56 µM with OVCAR-3 ovarian; 3.33 µM with SN12C renal; 3.87 µM in the experiment on IGROV1 ovarian; 4.23 µM in the experiment on T-47D breast. Moreover, the TGI in the experiment on OVCAR-8 ovarian turned out to be 3.67 µM; with SW-620 colon it was 3.77 µM; in the experiment on K-562 leukemia it was 4.4 µM.
